Structures can show the parent of a compound that is named as a salt.
melting point: 79.2 °C
SMILES: Cc1nn(-c2cccc(CN)c2)c2c1CCN(c1ccc(-c3ccccc3CN3CC[C@H](O)C3)cc1)C2 (as salt: trifluoroacetic acid salt) [Example 100, 1-[3-Aminomethylphenyl]-3-methyl-6-[(2′-N-((3-(S)-hydroxy)pyrrolidinyl)methyl-[1,1′]-biphen-4-yl)]-1,4,5,6-tetrahydro-7H-pyrazolo-[3,4-c]-pyridin-7-one bis-trifluoroacetic acid salt]
